Measurements published in patent publication US20250290117A1, “MOLECULAR PHENOTYPIC ANTIMICROBIAL SUSCEPTIBILITY TESTING” (priority 2024, published 2025).

Key:
Escherichia coli = assay: Molecular phenotypic antimicrobial susceptibility test (extraction or DNA purification prior to PCR); format: cell-based
Description: (§1) Detection of Molecular Phenotypic Antimicrobial Susceptibility. Disclosed herein are the methods for the detection of phenotypic antimicrobial susceptibility via molecular methods. The present invention describes how a specimen 100 with a known microbial load is incubated and then exposed to a panel of antimicrobial agents to determine sensitivity (prevention of growth) or resistance (allowance of growth) to the specific antimicrobial agents tested utilizing molecular methods.
(§2) Sample Collection. Specimens 100 are collected from patients using sterile collection processes that are employed in routine clinical care. Specimens are transported to the testing facility in boric acid preservative.
(§3) Preparation of the Specimens for Testing. […] The process for pathogen isolation includes steps of harvesting the pathogen (e.g., via centrifugation), isolating pathogen DNA via a DNA isolation and/or purification kit, and performing PCR on the pathogen DNA via PCR components (e.g., primers, enzymes, buffers) as would be known to the skilled artisan. […] This aliquot is used for antimicrobial susceptibility testing if indicated based on the pathogen detection results. […] Specimens 100 with lower pathogen loads could also be utilized in the antibiotic susceptibility phase of testing with or without a longer incubation period.
(§4) Preparation of Antimicrobial Susceptibility Testing Plates. Antimicrobial solutions are prepared at known concentrations. The specific antimicrobials and their concentrations are selected based on the pathogen of interest and the described antimicrobial resistance breakpoints for that specimen pathogen and antimicrobial combination. These antimicrobials have been selected based on those commonly utilized by healthcare providers in routine clinical care for the specific type of suspected infection. The number and types of antimicrobials utilized can be customized based on the infection source, pathogen detected, patient-specific factors such as allergies or other health conditions (e.g., chronic kidney disease or concurrent medication use), or healthcare provider preferences such as antimicrobial availability or cost.
(§5) The antimicrobial solutions are prepared in liquid culture media (such as Muller Hinton Broth) to achieve the desired antimicrobial concentration and are then stored at −80° C. until use. For a given specimen, each antimicrobial is tested at a single or multiple antimicrobial concentration(s) which is its established breakpoints for sensitivity. The antimicrobial solutions are prepared and plated out for each specific pathogen. […] This allows for evaluation of pathogen load when no antimicrobial is present.
(§6) Specimen Exposure to Antimicrobial Agents. The 1 mL aliquot of the specimen 100 previously mixed with culture media and incubated is obtained. Using optical density measurements as a guide, the specimen 100 is diluted to 0.5 McFarland.
(§7) Antimicrobial exposure plates are typically placed into an incubator for 12-16 hours.
(§8) Nucleic Acid Amplification of Antimicrobial Agent Exposed Pathogens. The antimicrobial exposure plate is removed after the period of incubation. The specimen then undergoes a purification or lysis step. For example, the specimen may undergo a purification step (e.g., magnetic bead-based or other separation protocol to isolate genetic material). In another example, the specimen may undergo a cell lysis step. For example, buffer (e.g., lysis buffer) may be added and incubated in the thermal cycler for preparation for direct PCR. Next, the specimen may undergo a polymerase chain reaction (PCR) testing protocol, whereby a semi-quantitative PCR method is utilized. This may be completed either with or without a specific extraction protocol step. The pathogens can be individually targeted and detected, or a universal genetic sequence can be utilized to detect the antimicrobial susceptibility of the specimen as a whole.

E. coli = assay: Molecular phenotypic antimicrobial susceptibility test with direct PCR (no extraction DNA purification step); format: cell-based, Escherichia coli
Description: as §1
Sample Collection. Specimens 100 are collected from patients using sterile collection processes that are employed in routine clinical care. Specimens are transported to the testing facility in boric acid preservative. Specimens 100 are subsequently divided into a first sample 104 and a second sample 108.
Preparation of the Specimens for Testing. The specimens 100 are put through a pathogen identification process using PCR technology (e.g., using the first sample 104). The process for pathogen isolation includes steps of harvesting the pathogen (e.g., via centrifugation), isolating pathogen DNA via a DNA isolation and/or purification kit, and performing PCR on the pathogen DNA via PCR components (e.g., primers, enzymes, buffers) as would be known to the skilled artisan. Simultaneously, an additional aliquot of the same specimen (e.g., the second sample 108) is placed with liquid culture media and incubated for 4-6 hours. This aliquot is used for antimicrobial susceptibility testing if indicated based on the pathogen detection results. After pathogen identification is completed and if more than 10,000 cells/mL of bacteria (e.g., eligible bacteria) are detected in the source specimen, the second sample 108 then enters the antimicrobial susceptibility phase of testing. Specimens 100 with lower pathogen loads could also be utilized in the antibiotic susceptibility phase of testing with or without a longer incubation period.
as §4
The antimicrobial solutions are prepared in liquid culture media (such as Muller Hinton Broth) to achieve the desired antimicrobial concentration and are then stored at −80° C. until use. For a given specimen, each antimicrobial is tested at a single or multiple antimicrobial concentration(s) which is its established breakpoints for sensitivity. The antimicrobial solutions are prepared and plated out for each specific pathogen. This allows ease of use on the day of testing after defrosting the plate 112. Table 1, which illustrates the results of molecular phenotypic antimicrobial susceptibility testing when more than one organism is present in the source specimen, provides an example of an antimicrobial plate 112 prepared for this purpose. Of note, control wells containing only culture media are present on all plates 112. This allows for evaluation of pathogen load when no antimicrobial is present.
Specimen Exposure to Antimicrobial Agents. The 1 mL aliquot of the specimen 100 previously mixed with culture media and incubated is obtained. Using optical density measurements as a guide, the specimen 100 is diluted to 0.5 McFarland. […]

[1] = test system: pathogens of clinical samples; assay: Molecular phenotypic antimicrobial susceptibility test of clinical samples, direct PCR without a separate DNA purification step (Table 6); format: cell-based
Description: as §1, §2, §3, §4, §5, §6, §7, §8

In the case of O=C(O)c1cn(C2CC2)c2cc(N3CCNCC3)c(F)cc2c1=O [Ciprofloxacin], the “Ct at Sensitive Breakpoint” value (Escherichia coli; E. coli isolate 1, Ct at control (average) 21.238) is reported as 20.351, the “Molecular Antimicrobial Susceptibility Result” value (Escherichia coli; E. coli isolate 1, at sensitive breakpoint) is reported as “Resistant” and the “Ct at Sensitive Breakpoint” value (Escherichia coli; E. coli isolate 2, Ct at control (average) 21.270) is reported as 19.988. For the same compound, the “Molecular Antimicrobial Susceptibility Result” value (Escherichia coli; E. coli isolate 2, at sensitive breakpoint) was “Resistant”, the “Ct at Sensitive Breakpoint” value (Escherichia coli; E. coli isolate 3, Ct at control (average) 22.0995) was 21.394 and the “Molecular Antimicrobial Susceptibility Result” value (Escherichia coli; E. coli isolate 3, at sensitive breakpoint) was “Resistant”. The “Ct at Sensitive Breakpoint” value (Escherichia coli; E. coli isolate 4, Ct at control (average) 17.5733) was 17.68, the “Molecular Antimicrobial Susceptibility Result” value (Escherichia coli; E. coli isolate 4, at sensitive breakpoint) was “Resistant” and the “Ct at Sensitive Breakpoint” value (Escherichia coli; E. coli isolate 5, Ct at control (average) 21.0933) was 33.02. The “Molecular Antimicrobial Susceptibility Result” value (Escherichia coli; E. coli isolate 5, at sensitive breakpoint) was “Sensitive (Antimicrobial wells with pathogen load detected below the control wells (typically >2 cycle thresholds later) may be reported as Sensitive)”, the “Ct at Sensitive Breakpoint” value (E. coli; E. coli isolate JJ1887, direct PCR, Ct at control (average) 12.832) was 12.215 and the “Molecular Antimicrobial Susceptibility Result” value (E. coli; E. coli isolate JJ1887, direct PCR, at sensitive breakpoint) was “Resistant”.

In the case of C[C@@H]1O[C@@H]1P(=O)(O)O [Fosfomycin], the “Molecular Antimicrobial Susceptibility Result” value (E. coli; E. coli #1 - WDCM 00090 - 6.2×E3, specimen with <10,000 cells/mL, direct PCR after 16 hours of incubation) is reported as “Sensitive (Antimicrobial wells with pathogen load detected below the control wells (typically >2 cycle thresholds later) may be reported as Sensitive)”, the “Ct at Sensitive Breakpoint” value (E. coli; E. coli #1 - WDCM 00090 - 6.2×E3, specimen with <10,000 cells/mL, direct PCR after 16 hours of incubation, Ct at control 13.787) is reported as 27.59 and the “Molecular Antimicrobial Susceptibility Result” value (E. coli; E. coli #2 - WDCM 00090 - 6.2×E3, specimen with <10,000 cells/mL, direct PCR after 16 hours of incubation) is reported as “Sensitive (Antimicrobial wells with pathogen load detected below the control wells (typically >2 cycle thresholds later) may be reported as Sensitive)”. The “Ct at Sensitive Breakpoint” value (E. coli; E. coli #2 - WDCM 00090 - 6.2×E3, specimen with <10,000 cells/mL, direct PCR after 16 hours of incubation, Ct at control 13.46) was 28.41, the “Molecular Antibiotic Susceptibility Result” value ([1]; E. coli, clinical sample of r10-r24) was “Sensitive (Antimicrobial wells with pathogen load detected below the control wells (typically >2 cycle thresholds later) may be reported as Sensitive)” and the Ct ([1]; E. coli, clinical sample of r10-r24, Ct control avg 12.97) was 25.481. The “Molecular Antibiotic Susceptibility Result” value ([1]; E. coli, clinical sample of r158-r172) was “Sensitive (Antimicrobial wells with pathogen load detected below the control wells (typically >2 cycle thresholds later) may be reported as Sensitive)”, the Ct ([1]; E. coli, clinical sample of r158-r172, Ct control avg 12.894) was 27.932 and the “Molecular Antibiotic Susceptibility Result” value ([1]; E. faecalis, clinical sample of r93-r99) was “Sensitive (Antimicrobial wells with pathogen load detected below the control wells (typically >2 cycle thresholds later) may be reported as Sensitive)”. The Ct ([1]; E. faecalis, clinical sample of r93-r99, Ct control avg 22.011) was 30.578, the “Molecular Antibiotic Susceptibility Result” value ([1]; E. faecalis, clinical sample of r100-r106) was “sensitive” and the Ct ([1]; E. faecalis, clinical sample of r100-r106, Ct control avg 21.027) was 33.882. The “Molecular Antibiotic Susceptibility Result” value ([1]; E. faecalis, clinical sample of r107-r113) was “Resistant”, the Ct ([1]; E. faecalis, clinical sample of r107-r113, Ct control avg 20.529) was 19.527 and the “Molecular Antibiotic Susceptibility Result” value ([1]; E. faecalis, clinical sample of r114-r120) was “Sensitive (Antimicrobial wells with pathogen load detected below the control wells (typically >2 cycle thresholds later) may be reported as Sensitive)”. For the same compound, the Ct ([1]; E. faecalis, clinical sample of r114-r120, Ct control avg 20.909) was 27.178, the “Molecular Antibiotic Susceptibility Result” value ([1]; E. faecalis, clinical sample of r151-r157) was “Sensitive (Antimicrobial wells with pathogen load detected below the control wells (typically >2 cycle thresholds later) may be reported as Sensitive)” and the Ct ([1]; E. faecalis, clinical sample of r151-r157, Ct control avg 18.551) was 32.048. The “Molecular Antibiotic Susceptibility Result” value ([1]; K. aerogenes, clinical sample of r136-r150) was “Sensitive (Antimicrobial wells with pathogen load detected below the control wells (typically >2 cycle thresholds later) may be reported as Sensitive)”, the Ct ([1]; K. aerogenes, clinical sample of r136-r150, Ct control avg 13.854) was 19.581 and the “Molecular Antibiotic Susceptibility Result” value ([1]; K. pneumoniae, clinical sample of r121-r135) was “Resistant”. The Ct ([1]; K. pneumoniae, clinical sample of r121-r135, Ct control avg […]) was 14.895, the “Molecular Antibiotic Susceptibility Result” value ([1]; M. morganii, clinical sample of r55-r69) was “Sensitive (Antimicrobial wells with pathogen load detected below the control wells (typically >2 cycle thresholds later) may be reported as Sensitive)” and the Ct ([1]; M. morganii, clinical sample of r55-r69, Ct control avg 12.09) was 18.368. The “Molecular Antibiotic Susceptibility Result” value ([1]; M. morganii, clinical sample of r70-r84) was “Sensitive (Antimicrobial wells with pathogen load detected below the control wells (typically >2 cycle thresholds later) may be reported as Sensitive)”, the Ct ([1]; M. morganii, clinical sample of r70-r84, Ct control avg 11.677) was 28.123 and the “Molecular Antibiotic Susceptibility Result” value ([1]; P. mirabilis, clinical sample of r25-r39) was “Sensitive (Antimicrobial wells with pathogen load detected below the control wells (typically >2 cycle thresholds later) may be reported as Sensitive)”. For the same compound, the Ct ([1]; P. mirabilis, clinical sample of r25-r39, Ct control avg 11.801) was 26.9, the “Molecular Antibiotic Susceptibility Result” value ([1]; P. mirabilis, clinical sample of r40-r54) was “Sensitive (Antimicrobial wells with pathogen load detected below the control wells (typically >2 cycle thresholds later) may be reported as Sensitive)” and the Ct ([1]; P. mirabilis, clinical sample of r40-r54, Ct control avg 10.06) was 27.935.
